Results reported in patent publication US6525001B1, “Substituted pyrimidine and pyridine herbicides” (Mid-American Commercialization Corporation, priority 1997, dated 2003).

Key:
Format in all cases: in vivo
Set-up in all cases: key: 0 is no effect; 10 is complete control
[1] = tested on: purple nutsedge (Cyperus rotundus); experiment: Test B pre-/postemergence
Text: (§1) Seeds of bedstraw (Galium aparine), blackgrass (Alopecurus myosuroides), broadleaf signalgrass (Brachiaria decumbens), cocklebur (Xanthium strumarium), corn (Zea mays), crabgrass (Digitaria sanguinalis), giant foxtail (Setaria faberii), lambsquarters (Chenopodium album), momingglory (Ipomoea hederacea), pigweed (Amaranthus retroflexus), rape (Brassica napus), soybean (Glycine max), sugar beet (Beta vulgaris), velvetleaf (Abutilon theophrasti), wheat (Triticum aestivum), wild oat (Avena fatua) and purple nutsedge (Cyperus rotundus) tubers were planted and treated preemergence with test chemicals formulated in a non-phytotoxic solvent mixture which included a surfactant.
(§2) At the same time, these crop and weed species were also treated with postemergence applications of test chemicals formulated in the same manner. Plants ranged in height from 2 to 18 cm (1- to 4-leaf stage) for postemergence treatments. Plant species in the flood test consisted of rice (Oryza sativa), smallflower flatsedge (Cyperus difformis), duck salad (Heteranthera limosa) and bamyardgrass (Echinochloa crus-galli) grown to the 2-leaf stage for testing. Treated plants and controls were maintained in a greenhouse for twelve to sixteen days, after which all species were compared to controls and visually evaluated. Plant response ratings, summarized in Table B, are based on a scale of 0 to 10 where 0 is no effect and 10 is complete control. A dash (−) response means no test result.

[2] = tested on: velvetleaf (Abutilon theophrasti); experiment: Test B pre-/postemergence
Text: as §1, §2

[3] = tested on: wild oat (Avena fatua); experiment: Test B pre-/postemergence
Text: as §1, §2

[4] = tested on: wheat (Triticum aestivum); experiment: Test B pre-/postemergence
Text: as §1, §2

[5] = tested on: momingglory (Ipomoea hederacea); experiment: Test B pre-/postemergence
Text: as §1, §2

[6] = tested on: broadleaf signalgrass (Brachiaria decumbens); experiment: Test B pre-/postemergence; settings: for B. signalgrass plant response rating: Preemergence
Text: as §1, §2

[7] = tested on: corn (Zea mays); experiment: Test B pre-/postemergence; settings: for Corn plant response rating: Preemergence
Text: as §1, §2

[8] = tested on: soybean (Glycine max); experiment: Test B pre-/postemergence
Text: as §1, §2

[9] = tested on: sugar beet (Beta vulgaris); experiment: Test B pre-/postemergence
Text: as §1, §2

[10] = tested on: cocklebur (Xanthium strumarium); experiment: Test B pre-/postemergence; settings: for Cocklebur plant response rating: Preemergence
Text: as §1, §2

[11] = tested on: rape (Brassica napus); experiment: Test B pre-/postemergence
Text: as §1, §2

[12] = tested on: blackgrass (Alopecurus myosuroides); experiment: Test B pre-/postemergence; settings: for Blackgrass plant response rating: Preemergence
Text: as §1, §2

[13] = tested on: crabgrass (Digitaria sanguinalis); experiment: Test B pre-/postemergence; settings: for Crabgrass plant response rating: Preemergence
Text: as §1, §2

[14] = tested on: pigweed (Amaranthus retroflexus); experiment: Test B pre-/postemergence
Text: as §1, §2

[15] = tested on: giant foxtail (Setaria faberii); experiment: Test B pre-/postemergence
Text: as §1, §2

[16] = tested on: bedstraw (Galium aparine); experiment: Test B pre-/postemergence; settings: for Bedstraw plant response rating: Preemergence
Text: as §1, §2

[17] = tested on: smallflower flatsedge (Cyperus difformis); experiment: Test B flood test
How it was run: (§3)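 Flood test on plants grown to the 2-leaf stage; treated plants kept in greenhouse twelve to sixteen days, then visually rated against controls on a 0 (no effect) to 10 (complete control) scale.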

[18] = tested on: duck salad (Heteranthera limosa); experiment: Test B flood test
How it was run: as §3

[19] = tested on: rice (Oryza sativa); experiment: Test B flood test
How it was run: as §3

[20] = tested on: bamyardgrass (Echinochloa crus-galli); experiment: Test B flood test
How it was run: as §3

[21] = Rate 250 g/ha, Postemergence (so in the source)
[22] = Rate 62 g/ha, Postemergence (flood test)
[23] = Rate 125 g/ha, Postemergence section (flood test species)
[24] = Rate 250 g/ha, Postemergence (flood test species)
[25] = Rate 125 g/ha, Postemergence, flood test

Cc1cnc(-c2ccc(Cl)cc2F)nc1Cc1cccc(C#N)c1 [Compound 35]
8: Plant response rating, Bedstraw ([16]; Rate 250 g/ha, Postemergence)
1: Plant response rating, Velvetleaf ([2]; Rate 62 g/ha, Postemergence) | Velvetleaf plant response rating ([2]; Rate 125 g/ha, Postemergence) | Plant response rating, Velvetleaf ([2]; Rate 250 g/ha, Postemergence) | Plant response rating, Velvetleaf [2, 21] | Wild oats plant response rating ([3]; Rate 62 g/ha, Postemergence) | Wild oats plant response rating ([3]; Rate 125 g/ha, Postemergence) | Plant response rating, Wild oats [3, 21] | Plant response rating, Wheat ([4]; Rate 250 g/ha, Postemergence) | Plant response rating, Morningglory ([5]; Rate 62 g/ha, Postemergence) | Morningglory plant response rating ([5]; Rate 125 g/ha, Postemergence) | Plant response rating, Morningglory ([5]; Rate 250 g/ha, Postemergence) | Plant response rating, B. signalgrass ([6]; Rate 62 g/ha, Postemergence) | Plant response rating, B. signalgrass ([6]; Rate 125 g/ha, Postemergence) | Plant response rating, B. signalgrass ([6]; Rate 250 g/ha, Postemergence) | Plant response rating, Corn ([7]; Rate 62 g/ha, Postemergence) | Plant response rating, Corn ([7]; Rate 125 g/ha, Postemergence) | Plant response rating, Corn ([7]; Rate 250 g/ha, Postemergence) | Plant response rating, Soybean ([8]; Rate 62 g/ha, Postemergence) | Plant response rating, Sugarbeets [9, 21] | Plant response rating, Blackgrass ([12]; Rate 62 g/ha, Postemergence) | Plant response rating, Blackgrass ([12]; Rate 125 g/ha, Postemergence) | Plant response rating, Blackgrass ([12]; Rate 250 g/ha, Postemergence) | Crabgrass plant response rating ([13]; Rate 125 g/ha) | Plant response rating, Crabgrass [13, 21] | Plant response rating, Giant foxtail ([15]; Rate 62 g/ha, Postemergence) | Giant foxtail plant response rating ([15]; Rate 125 g/ha, Postemergence) | Plant response rating, Giant foxtail ([15]; Rate 250 g/ha, Postemergence) | Plant response rating, Giant foxtail [15, 21] | Plant response rating, Bedstraw [16, 21] | Plant response rating, S. Flatsedge [17, 22] | Plant response rating, Ducksalad [18, 24] | Rice plant response rating [19, 23] | Plant response rating, Rice [19, 24]
2: Plant response rating, Wild oats ([3]; Rate 250 g/ha, Postemergence) | Soybean plant response rating ([8]; Rate 125 g/ha, Postemergence) | Plant response rating, Soybean ([8]; Rate 250 g/ha, Postemergence) | Plant response rating, Cocklebur ([10]; Rate 62 g/ha, Postemergence) | Plant response rating, Cocklebur ([10]; Rate 125 g/ha, Postemergence) | Plant response rating, Cocklebur ([10]; Rate 250 g/ha, Postemergence) | Plant response rating, Crabgrass ([13]; Rate 62 g/ha, Postemergence) | Plant response rating, Crabgrass ([13]; Rate 125 g/ha, Postemergence) | Plant response rating, Crabgrass ([13]; Rate 250 g/ha, Postemergence) | S. Flatsedge plant response rating [17, 23] | Plant response rating, S. Flatsedge [17, 24] | Plant response rating, Barnyardgrass [20, 25] | Plant response rating, Barnyardgrass [20, 24]
6: Plant response rating, Rape ([11]; Rate 62 g/ha, Postemergence) | Rape plant response rating ([11]; Rate 125 g/ha, Postemergence) | Plant response rating, Bedstraw ([16]; Rate 62 g/ha, Postemergence) | Plant response rating, Bedstraw ([16]; Rate 125 g/ha, Postemergence)
10: Sugarbeets plant response rating ([9]; Rate 125 g/ha, Postemergence) | Plant response rating, Sugarbeets ([9]; Rate 250 g/ha, Postemergence)
5: Plant response rating, Redroot pigweed ([14]; Rate 250 g/ha, Postemergence) | Plant response rating, Redroot pigweed [14, 21]
3: Plant response rating, Redroot pigweed ([14]; Rate 62 g/ha, Postemergence) | Redroot pigweed plant response rating ([14]; Rate 125 g/ha, Postemergence)
9: Plant response rating, Sugarbeets ([9]; Rate 62 g/ha, Postemergence) | Plant response rating, Rape ([11]; Rate 250 g/ha, Postemergence)
0: Plant response rating, Nutsedge ([1]; Rate 62 g/ha, Postemergence) | Nutsedge plant response rating ([1]; Rate 62 g/ha, Preemergence) | Nutsedge plant response rating ([1]; Rate 125 g/ha, Postemergence) | Nutsedge plant response rating ([1]; Rate 125 g/ha, Preemergence) | Plant response rating, Nutsedge ([1]; Rate 250 g/ha, Postemergence) | Plant response rating, Nutsedge [1, 21] | Velvetleaf plant response rating ([2]; Rate 62 g/ha, Preemergence) | Plant response rating, Velvetleaf ([2]; Rate 125 g/ha, Preemergence) | Wild oats plant response rating ([3]; Rate 62 g/ha, Preemergence) | Plant response rating, Wild oats ([3]; Rate 125 g/ha, Preemergence) | Wheat plant response rating ([4]; Rate 62 g/ha, Postemergence) | Wheat plant response rating ([4]; Rate 62 g/ha, Preemergence) | Wheat plant response rating ([4]; Rate 125 g/ha, Postemergence) | Plant response rating, Wheat ([4]; Rate 125 g/ha, Preemergence) | Plant response rating, Wheat [4, 21] | Morningglory plant response rating ([5]; Rate 62 g/ha, Preemergence) | Morningglory plant response rating ([5]; Rate 125 g/ha, Preemergence) | Plant response rating, Morningglory [5, 21] | B. signalgrass plant response rating ([6]; Rate 62 g/ha) | B. signalgrass plant response rating ([6]; Rate 125 g/ha) | Plant response rating, B. signalgrass ([6]; Rate 250 g/ha, Postemergence as printed in head r139 (second section for compounds 26-50)) | Corn plant response rating ([7]; Rate 62 g/ha) | Corn plant response rating ([7]; Rate 125 g/ha) | Plant response rating, Corn [7, 21] | Soybean plant response rating ([8]; Rate 62 g/ha, Preemergence) | Plant response rating, Soybean ([8]; Rate 125 g/ha, Preemergence) | Plant response rating, Soybean [8, 21] | Sugarbeets plant response rating ([9]; Rate 62 g/ha, Preemergence) | Plant response rating, Sugarbeets ([9]; Rate 125 g/ha, Preemergence) | Cocklebur plant response rating ([10]; Rate 62 g/ha) | Cocklebur plant response rating ([10]; Rate 125 g/ha) | Plant response rating, Cocklebur [10, 21] | Rape plant response rating ([11]; Rate 62 g/ha, Preemergence) | Rape plant response rating ([11]; Rate 125 g/ha, Preemergence) | Plant response rating, Rape [11, 21] | Blackgrass plant response rating ([12]; Rate 62 g/ha) | Blackgrass plant response rating ([12]; Rate 125 g/ha) | Plant response rating, Blackgrass [12, 21] | Crabgrass plant response rating ([13]; Rate 62 g/ha) | Redroot pigweed plant response rating ([14]; Rate 62 g/ha, Preemergence) | Redroot pigweed plant response rating ([14]; Rate 125 g/ha, Preemergence) | Giant foxtail plant response rating ([15]; Rate 62 g/ha, Preemergence) | Giant foxtail plant response rating ([15]; Rate 125 g/ha, Preemergence) | Bedstraw plant response rating ([16]; Rate 62 g/ha) | Bedstraw plant response rating ([16]; Rate 125 g/ha) | Plant response rating, Ducksalad [18, 22] | Plant response rating, Ducksalad [18, 25] | Plant response rating, Rice [19, 22] | Plant response rating, Barnyardgrass [20, 22]
